Measurements published in patent publication US10111435B2, “Herbicidal compositions containing N-(1,3,4-oxadiazol-2-yl)-aryl carboxylic acid amides” (BAYER CROPSCIENCE AKTIENGESELLSCHAFT, priority 2013, dated 2018).

Tests used:
Assay type in all cases: in vivo
[1] = tested on: Amaranthus retroflexus (AMARE); experiment: greenhouse post-emergence herbicidal efficacy against AMARE
Experimental: (§1) All trials whose results are shown were conducted in a greenhouse by the methodology specified below. The effect of the inventive herbicidal compositions was examined on the following harmful plants 14 and 21 days after application:
(§2) Echinochloa crus-galli (ECHCG), Eleusine indica (ELEIN), Setaria viridis (SETVI), Amaranthus retroflexus (AMARE), Chenopodium album (CHEAL), Kochia scoparia (KCHSC), Solanum nigrum (SOLNI), Avena fatua (AVEFA), Bromus sterilis (BROST), Lolium multiflorum (LOLMU), Phalaris minor (PHAMI), Poa annua (POAAN), Galium aparine (GALAP), Matricaria inodora (MATIN) and Polygonum convolvulus (POLCO).
(§3) The harmful plant seeds were sown in pots (diameter 8 cm) with sandy loam soil and germinated under optimal conditions. The inventive herbicidal compositions or the active ingredients alone were applied post-emergence to the planted pots with a spray volume of 300 L/ha. The trial was conducted in a greenhouse under optimum growth conditions. The herbicidal effects were assessed visually by comparison of untreated and treated plants. The percentages mean: 0%=no effects, 100%=the plants die off completely). The percentages are used to calculate interactions between individual treatments and combination treatments according to S. R. Colby, Weeds 15, pages 20 to 22 (1967).
(§4) The abbreviations mean: • a.i.=active ingredient • E^C=expected value according to Colby (E^C=A+B−A×B/100) • Diff: =difference (%) of measured value from expected value (%) (measured value minus expected value)
(§5) Assessment: • measured value E is greater than E^C:->synergism (+ diff.) • measured value E equals E^C:->additive effect • measured value E is smaller than E^C:->antagonism(− diff.)

[2] = tested on: Matricaria inodora (MATIN); experiment: greenhouse post-emergence herbicidal efficacy against MATIN
Outline: (§6)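 Read-out is visual percent herbicidal effect relative to untreated plants, taken 14 and 21 days after treatment. Pot-grown plants in sandy loam received mixtures or solo active ingredients post-emergence at a spray volume of 300 L/ha under optimum greenhouse conditions.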

Bromus sterilis (BROST) = experiment: greenhouse post-emergence herbicidal efficacy against BROST
Outline: as §6

Solanum nigrum (SOLNI) = experiment: greenhouse post-emergence herbicidal efficacy against SOLNI; details: 21 days after application
Experimental: as §1, §2, §3, §4, §5

Galium aparine (GALAP) = experiment: greenhouse post-emergence herbicidal efficacy against GALAP
Outline: as §6

Avena fatua (AVEFA) = experiment: greenhouse post-emergence herbicidal efficacy against AVEFA
Outline: as §6

Phalaris minor (PHAMI) = experiment: greenhouse post-emergence herbicidal efficacy against PHAMI
Outline: as §6

[3] = tested on: Polygonum convolvulus (POLCO); experiment: greenhouse post-emergence herbicidal efficacy against POLCO
Outline: as §6

[4] = tested on: Chenopodium album (CHEAL); experiment: greenhouse post-emergence herbicidal efficacy against CHEAL
Experimental: as §1, §2, §3, §4, §5

[5] = tested on: Lolium multiflorum (LOLMU); experiment: greenhouse post-emergence herbicidal efficacy against LOLMU
Outline: as §6

Poa annua (POAAN) = experiment: greenhouse post-emergence herbicidal efficacy against POAAN
Outline: as §6

DIGSA = experiment: greenhouse post-emergence herbicidal efficacy against DIGSA
Experimental: as §1, §3, §4, §5

Eleusine indica (ELEIN) = experiment: greenhouse post-emergence herbicidal efficacy against ELEIN; details: for pest or weed control at 10 g/ha: 10 g of a.i./ha; for pest or weed control at 40 g/ha: 40 g of a.i./ha
Experimental: as §1, §2, §3, §4, §5

Setaria viridis (SETVI) = experiment: greenhouse post-emergence herbicidal efficacy against SETVI
Experimental: as §1, §2, §3, §4, §5

Kochia scoparia (KCHSC) = experiment: greenhouse post-emergence herbicidal efficacy against KCHSC
Experimental: as §1, §2, §3, §4, §5

[6] = tested on: Echinochloa crus-galli (ECHCG); experiment: greenhouse post-emergence herbicidal efficacy against ECHCG
Experimental: as §1, §2, §3, §4, §5

[7] = 21 days after application, 25 g of a.i./ha
[8] = 21 days after application, g of a.i./ha: A1-34 50, iodosulfuron-methyl-sodium 0.5
[9] = 14 days after application, 50 g of a.i./ha
[10] = 21 days after application, g of a.i./ha: A1-34 50, iodosulfuron-methyl-sodium 2
[11] = 21 days after application, g of a.i./ha: A1-34 200, iodosulfuron-methyl-sodium 2
[12] = 14 days after application, 200 g of a.i./ha
[13] = 14 days after application, 0.5 g of a.i./ha
[14] = 21 days after application, 0.5 g of a.i./ha
[15] = 14 days after application, 2.5 g of a.i./ha
[16] = 14 days after application, 10 g of a.i./ha
[17] = 21 days after application, g of a.i./ha: A1-55 2.5, glufosinate-ammonium 25
[18] = 21 days after application, g of a.i./ha: A1-55 2.5, glufosinate-ammonium 100
[19] = 21 days after application, g of a.i./ha: A1-55 10, glufosinate-ammonium 25
[20] = 21 days after application, g of a.i./ha: A1-55 10, glufosinate-ammonium 100
[21] = 21 days after application, 2 g of a.i./ha
[22] = 14 days after application, 2 g of a.i./ha
[23] = 21 days after application, g of a.i./ha: A2-1 12.5, fluroxypyr 20
[24] = 21 days after application, g of a.i./ha: A2-1 12.5, fluroxypyr 80
[25] = 21 days after application, g of a.i./ha: A2-1 50, fluroxypyr 20
[26] = 21 days after application, g of a.i./ha: A2-1 50, fluroxypyr 80
[27] = 21 days after application, 4 g of a.i./ha
[28] = 14 days after application, 12.5 g of a.i./ha
[29] = 14 days after application, 4 g of a.i./ha
[30] = 14 days after application, 40 g of a.i./ha
[31] = 21 days after application, 40 g of a.i./ha
[32] = Eleusine indica, post-emergence, 336 h, 14 days after application
[33] = Eleusine indica, post-emergence, 504 h, 21 days after application
[34] = 14 days after application, 1 g of a.i./ha
[35] = 21 days after application, 1 g of a.i./ha
[36] = 21 days after application, 0.25 g of a.i./ha

Cc1c(C(=O)Nc2nnc(C3CC3)o2)ccc(C(F)(F)F)c1[S+](C)[O-] (stereo not drawn) [A1-34]
Efficacy [1, 7]: 30%
Efficacy ([1]; 21 days after application, 100 g of a.i./ha): 50%
Efficacy [2, 8]: 50%
Efficacy (Bromus sterilis (BROST); [9]): 10%
Efficacy (Bromus sterilis (BROST); [10]): 15%
Efficacy (Bromus sterilis (BROST); [11]): 35%
Efficacy (Solanum nigrum (SOLNI); 25 g of a.i./ha): 10%
Efficacy (Galium aparine (GALAP); [9]): 50%
Efficacy (Galium aparine (GALAP); [8]): 20%
Efficacy (Galium aparine (GALAP); [11]): 40%
Efficacy (Avena fatua (AVEFA); [11]): 5%
Efficacy (Phalaris minor (PHAMI); [12]): 60%
Efficacy [3, 12]: 30%
Efficacy [3, 8]: 0%
Efficacy [3, 10]: 0%
Efficacy [4, 7]: 70%
Efficacy [5, 9]: 5%
Efficacy [5, 12]: 30%
Efficacy (Poa annua (POAAN); [12]): 85%

Cc1nnc(NC(=O)c2ccc(C(F)(F)F)c(-n3cccn3)c2Cl)o1 [A1-55]
Efficacy [1, 13]: 20%
Efficacy [1, 14]: 10%
Efficacy [2, 15]: 0%
Efficacy [2, 16]: 30%
Efficacy [2, 17]: 0%
Efficacy [2, 18]: 0%
Efficacy [2, 19]: 20%
Efficacy [2, 20]: 20%
Efficacy (DIGSA; [13]): 20%
Efficacy (DIGSA; [21]): 30%
Efficacy (Eleusine indica (ELEIN); [22]): 40%
Efficacy (Eleusine indica (ELEIN); [21]): 30%
Efficacy (Bromus sterilis (BROST); [15]): 5%
Efficacy (Bromus sterilis (BROST); [18]): 0%
Efficacy (Bromus sterilis (BROST); [19]): 10%
Efficacy (Galium aparine (GALAP); [15]): 0%
Efficacy (Galium aparine (GALAP); [16]): 30%
Efficacy (Galium aparine (GALAP); [19]): 15%
Efficacy (Avena fatua (AVEFA); [15]): 0%
Efficacy (Avena fatua (AVEFA); [18]): 0%
Efficacy (Avena fatua (AVEFA); [20]): 10%
Efficacy (Phalaris minor (PHAMI); [15]): 0%
Efficacy (Phalaris minor (PHAMI); [16]): 25%
Efficacy (Phalaris minor (PHAMI); [17]): 0%
Efficacy (Phalaris minor (PHAMI); [18]): 0%
Efficacy (Phalaris minor (PHAMI); [19]): 5%
Efficacy (Phalaris minor (PHAMI); [20]): 5%
Efficacy [3, 15]: 0%
Efficacy [3, 16]: 0%
Efficacy [3, 19]: 0%
Efficacy [3, 20]: 0%
Efficacy (Setaria viridis (SETVI); [22]): 40%
Efficacy (Setaria viridis (SETVI); [21]): 30%
Efficacy [4, 22]: 70%
Efficacy [5, 15]: 0%
Efficacy [5, 16]: 15%
Efficacy [5, 18]: 0%
Efficacy [5, 20]: 10%
Efficacy (Poa annua (POAAN); [15]): 5%
Efficacy (Poa annua (POAAN); [16]): 20%
Efficacy (Poa annua (POAAN); [18]): 0%
Efficacy (Poa annua (POAAN); [20]): 0%

Cc1nnc(NC(=O)c2ccc(C(F)(F)F)nc2C)o1 [A2-1]
Efficacy [2, 23]: 80%
Efficacy [2, 24]: 80%
Efficacy [2, 25]: 85%
Efficacy [2, 26]: 85%
Efficacy (Eleusine indica (ELEIN); [27]): 60%
Efficacy (Kochia scoparia (KCHSC); [27]): 40%
Efficacy (Bromus sterilis (BROST); [28]): 0%
Efficacy (Bromus sterilis (BROST); [26]): 0%
Efficacy (Solanum nigrum (SOLNI); 1 g of a.i./ha): 10%
Efficacy (Avena fatua (AVEFA); [28]): 0%
Efficacy (Avena fatua (AVEFA); [9]): 0%
Efficacy (Avena fatua (AVEFA); [24]): 0%
Efficacy (Avena fatua (AVEFA); [26]): 0%
Efficacy [6, 29]: 50%
Efficacy [6, 27]: 40%
Efficacy (Phalaris minor (PHAMI); [28]): 15%
Efficacy (Phalaris minor (PHAMI); [24]): 0%
Efficacy (Phalaris minor (PHAMI); [26]): 15%
Efficacy [3, 9]: 70%
Efficacy [3, 23]: 20%
Efficacy [3, 25]: 60%
Efficacy (Setaria viridis (SETVI); [27]): 20%
Efficacy [5, 28]: 0%
Efficacy [5, 9]: 0%
Efficacy [5, 26]: 0%
Efficacy (Poa annua (POAAN); [28]): 15%
Efficacy (Poa annua (POAAN); [23]): 0%
Efficacy (Poa annua (POAAN); [24]): 0%

COc1c(Cl)ccc(Cl)c1C(=O)O [dicamba]
Efficacy [1, 30]: 65%
Efficacy [1, 31]: 65%
Efficacy (DIGSA; [30]): 0%
Efficacy (DIGSA; [31]): 0%
pest or weed control at 10 g/ha (Eleusine indica (ELEIN); [32]): 10%
pest or weed control at 40 g/ha (Eleusine indica (ELEIN); [32]): 10%
pest or weed control at 10 g/ha (Eleusine indica (ELEIN); [33]): 0%
pest or weed control at 40 g/ha (Eleusine indica (ELEIN); [33]): 0%
Efficacy (Setaria viridis (SETVI); [30]): 0%
Efficacy (Setaria viridis (SETVI); [16]): 0%
Efficacy (Setaria viridis (SETVI); 21 days after application, 10 g of a.i./ha): 0%
Efficacy (Setaria viridis (SETVI); [31]): 0%
Efficacy [4, 16]: 50%

COc1cc(OC)nc(NC(=O)NS(=O)(=O)c2cc(NC=O)ccc2C(=O)N(C)C)n1 [foramsulfuron]
Efficacy (DIGSA; [29]): 40%
pest or weed control at 1 g/ha (Eleusine indica (ELEIN); Eleusine indica, post-emergence, 504 h, 21 days after application, 1 g of a.i./ha): 60%
Efficacy (Kochia scoparia (KCHSC); [34]): 80%
Efficacy (Kochia scoparia (KCHSC); [29]): 90%
Efficacy (Kochia scoparia (KCHSC); [27]): 80%
Efficacy [6, 34]: 60%
Efficacy [6, 35]: 30%
Efficacy (Setaria viridis (SETVI); [34]): 40%
Efficacy (Setaria viridis (SETVI); [27]): 50%
Efficacy (Setaria viridis (SETVI); [35]): 20%
Efficacy [4, 34]: 50%

COc1c(Cl)ccc(-c2cc(N)c(Cl)c(C(=O)O)n2)c1F [halauxifen]
Efficacy (Eleusine indica (ELEIN); [14]): 0%
Efficacy (Eleusine indica (ELEIN); [21]): 0%
Efficacy (Kochia scoparia (KCHSC); [14]): 20%
Efficacy (Kochia scoparia (KCHSC); [21]): 30%
Efficacy (Solanum nigrum (SOLNI); 0.5 g of a.i./ha): 50%
Efficacy [6, 13]: 0%
Efficacy [6, 22]: 10%
Efficacy [6, 21]: 20%
Efficacy (Setaria viridis (SETVI); [21]): 0%

COC(=O)c1csc(C)c1S(=O)(=O)NC(=O)n1nc(OC)n(C)c1=O [thiencarbazone-methyl]
Efficacy [1, 36]: 60%
Efficacy (Solanum nigrum (SOLNI); 1 g of a.i./ha): 50%
Efficacy [4, 36]: 50%
Efficacy [4, 35]: 70%
